{"source": "patent US12691186B2", "about": "“B7-H3 miniproteins, conjugates, and uses thereof” (priority 2023, dated 2026)", "key": {"[1]": {"test": "Thermal stability (Tm) of B7-H3 miniprotein conjugates", "format": "physicochemical", "description": "Thermal stability was assessed for several exemplary miniprotein conjugates and reported as Tm (e.g., see Table 7A).\nAs compared to unconstrained sequences (e.g., as in Table 2A and shown for C211 in Table 7A), those with disulfide bonds (e.g., as in Table 2C and shown for C234, C275, C294, and C309 in Table 7A) were more thermally stable (see Table 7A), and exemplary compounds with two disulfide bridges (C234, C275, and C309) were stable at higher temperatures than an exemplary compound with one disulfide bridge (C294)."}, "[2]": {"test_system": "opossum kidney proximal tubule cells", "test": "OK-PTC uptake assay of miniprotein conjugates in presence of scaffold A decoys", "format": "cell-based", "conditions": "compound 20 μM", "description": "This Example describes reduction of uptake of exemplary truncated and constrained B7-H3 miniprotein conjugates (C272, C308, C234, C394, C250, and C228) when combined with exemplary scaffold A decoys (C118, C119 and C120) as compared to no decoy. Uptake of compounds was evaluated in opossum kidney proximal tubule cells (as described in Example 5). Here, cells were treated with a compound in the presence or absence of a 20-fold molar excess of exemplary scaffold A decoys, C118, C119, and C120. Results depicting uptake of six exemplary B7-H3-targeting compounds, C272, C308, C234, C394, C250, and C228, in OK-PTC cells in the presence and absence of exemplary decoys C118, C119, and C120 (scaffold A decoys) are shown in Table 13. The B7-H3-targeting compounds were used at 20 μM and the decoys used at a 20-fold (with C272, C308, C234, C394, and C250) and 10-fold (with C228) molar excess."}, "[3]": {"test_system": "opossum kidney proximal tubule cells", "test": "Proximal tubule epithelial cell (OK cell) uptake assay relative to control C4", "format": "cell-based", "experimental": "Inhibition constant (Ki) of each conjugate was measured using DELFIA as described herein."}}, "note": "Bridges are numbered along the chain shown (N, C = ends). [ ]: non-standard residue; d: D form. The star is where a group is joined. Biotin = O=C1N[C@H]2[C@H](CS[C@H]2CCCCC(=O)*)N1; Lys(Me2) = CN(C)CCCC[C@H](N)C(=O)O; PEG4 = NCCOCCOCCOCCOCCC(=O)O"}
{"compound": "CC[C@H](C)[C@@H]1NC(=O)[C@H](Cc2ccccc2)NC(=O)[C@H](C)NC(=O)[C@H](CCCCN(C)C)NC(=O)[C@H]([C@@H](C)CC)NC(=O)[C@H](CCC(N)=O)NC(=O)[C@H](C)NC(=O)[C@H](Cc2ccc(O)cc2)NC(=O)[C@H]([C@@H](C)O)NC(=O)[C@H](CC(C)C)NC(=O)[C@@H]2CSSC[C@@H](C(=O)N[C@@H](CO)C(N)=O)NC(=O)[C@H](CC(C)C)NC(=O)[C@H](CCC(=O)O)NC(=O)[C@H](CCCCN)NC(=O)[C@H](C)NC(=O)[C@H](CCC(=O)O)NC(=O)[C@H](CO)NC(=O)[C@H](CC(C)C)NC(=O)[C@H]([C@@H](C)CC)NC(=O)[C@H](CCC(=O)O)NC(=O)[C@H](CO)NC(=O)[C@H](CO)NC(=O)[C@H](CCC(N)=O)NC(=O)[C@H](CSSC[C@H](NC(=O)CCOCCOCCOCCOCCNC(=O)CCCC[C@@H]3SC[C@@H]4NC(=O)N[C@@H]43)C(=O)N[C@@H](C)C(=O)N[C@@H](CCCC[N+](C)(C)C)C(=O)N[C@@H](CCC(=O)O)C(=O)N[C@@H](CCCCN)C(=O)N[C@@H]([C@@H](C)CC)C(=O)N[C@@H](C)C(=O)N[C@@H](C)C(=O)N[C@@H](CC(C)C)C(=O)N[C@@H](CO)C(=O)N[C@@H](CCC(=O)O)C(=O)N[C@@H]([C@@H](C)CC)C(=O)N[C@@H]([C@@H](C)CC)C(=O)N[C@@H](Cc3c[nH]c4ccccc34)C(=O)N[C@@H](CC(C)C)C(=O)N3CCC[C@H]3C(=O)N2)NC(=O)[C@@H]2CCCN2C(=O)[C@H](CC(=O)O)NC(=O)[C@H](CC(=O)O)NC(=O)[C@H](CC(N)=O)NC(=O)[C@H](CC(C)C)NC(=O)[C@H](C)NC(=O)[C@H](C)NC1=O", "note": "[Compound C234]", "values": [{"measurement": "Tm (° C.)", "setting": "[1]", "result": "~≥75 °C"}, {"measurement": "% Uptake reduction in the presence of a decoy C118", "setting": "[2]; 20-fold molar excess of decoy C118", "result": 86.4, "unit": "%"}, {"measurement": "% Uptake reduction in the presence of a decoy C119", "setting": "[2]; 20-fold molar excess of decoy C119", "result": 96.2, "unit": "%"}, {"measurement": "% Uptake reduction in the presence of a decoy C120", "setting": "[2]; 20-fold molar excess of decoy C120", "result": 96.9, "unit": "%"}]}
{"compound": "{Biotin-PEG4}-CAREKIAALSEIIWLPCLTYAQI[Lys(Me2)]AFIAALNDDPCQSSEILSEAKELCS-NH2 (disulfide 1-35, 17-48) [Compound C275]", "values": [{"measurement": "Tm (° C.)", "setting": "[1]", "result": "~≥75 °C"}, {"measurement": "% Uptake of C4", "setting": "[3]", "result": 3, "unit": "%"}]}
